Consider eight molecules from patent US20260042764A1, “COMPOSITIONS AND METHODS FOR INHIBITION OF KRAS” (TheRas, Inc., priority 2022, published 2026).

In assay [1] the target is T1, Avi-KRAS WT (1-169) GppNHp/RAF1 RBD-3xFLAG (52-151) (Homo sapiens, UniProt P01116).
T1 construct: Avi-KRAS WT (1-169)
Briefly: Raf1-KRAS WT-GppNHP disruption HTRF assay (Biological Example 1). It counts as binding. A digest of the protocol: (§1)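 Compound disruption of KRAS-GppNHp/RAF1 RBD binding read by HTRF after two sequential 1 h room-temperature incubations (protein mix, then detection reagents), shaken at 700 rpm. Buffer Tris pH 7.5 with MgCl2, BSA, Tween and 10% DMSO; results given as percent activity relative to DMSO (100%).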
(TR-FRET usually uses a lanthanide donor and a delayed reading to cut background.)

The target in assay [2] is T2, Avi-KRAS WT (2-169) GTP/RAF1 RBD-3xFLAG (51-131) (Homo sapiens, UniProt P01116).
T2 construct: Avi-KRAS WT (2-169)
T2 sequence (P01116 2-169 isoform P01116-2): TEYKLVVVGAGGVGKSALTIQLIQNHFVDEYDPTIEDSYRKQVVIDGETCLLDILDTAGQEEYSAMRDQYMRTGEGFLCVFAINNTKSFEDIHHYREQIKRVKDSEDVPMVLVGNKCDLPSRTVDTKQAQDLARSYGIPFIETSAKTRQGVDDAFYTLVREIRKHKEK
Briefly: Raf1-KRAS WT-GTP disruption HTRF assay (Biological Example 3). Conditions: KRAS WT, GTP-loaded. It counts as binding. In a few lines: (§2)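 Compounds were titrated 10-point, 3-fold from 30 μM against preformed KRAS-GTP:RAF1 RBD (51-131) complexes at 50 nM, using KRAS 2-169 as WT, G12C, G12D or G12V. After 1 h at room temperature in Tris pH 7.5 buffer with MgCl2 and 10% DMSO, time-resolved fluorescence was read. Results are percent activity versus DMSO.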

Assay [3] addresses T3, Avi-KRAS G12D (1-169) GppNHp/RAF1 RBD-3xFLAG (52-151) (Homo sapiens, UniProt P01116, G12D).
T3 construct: Avi-KRAS G12D (1-169)
Briefly: Raf1-KRAS G12D-GppNHP disruption HTRF assay (Biological Example 1). Type of assay: binding. In a few lines: as §1

Assay [4] concerns SW620 cells (KRAS G12V). Briefly: Cell-based pERK HTRF assay in SW620 cell (Biological Example 4). In a few lines:
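SW620 seeded in RPMI/10% FBS, next day dosed 4 h (top 1 μM, half-log, 9 pts, 0.25% DMSO). Lysed, pERK by d2/Eu cryptate HTRF, 4–24 h RT, 615 nm read.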

For assay [5], the target named is T4, Avi-KRAS G12V (1-169) GppNHp/RAF1 RBD-3xFLAG (52-151) (Homo sapiens, UniProt P01116, G12V).
T4 construct: Avi-KRAS G12V (1-169)
T4 sequence (P01116 1-169 isoform P01116-2 G12V): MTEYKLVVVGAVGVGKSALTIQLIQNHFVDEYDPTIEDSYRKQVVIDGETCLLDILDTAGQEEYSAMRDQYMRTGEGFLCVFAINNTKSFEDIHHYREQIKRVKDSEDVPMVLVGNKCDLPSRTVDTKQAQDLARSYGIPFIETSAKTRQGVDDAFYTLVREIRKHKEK
Briefly: Raf1-KRAS G12V-GppNHP disruption HTRF assay (Biological Example 1). It counts as binding. A digest of the protocol:
as §1

The target in assay [6] is T5, Avi-KRAS G12V (2-169) GTP/RAF1 RBD-3xFLAG (51-131) (Homo sapiens, UniProt P01116, G12V).
T5 construct: Avi-KRAS G12V (2-169)
T5 sequence (P01116 2-169 isoform P01116-2 G12V): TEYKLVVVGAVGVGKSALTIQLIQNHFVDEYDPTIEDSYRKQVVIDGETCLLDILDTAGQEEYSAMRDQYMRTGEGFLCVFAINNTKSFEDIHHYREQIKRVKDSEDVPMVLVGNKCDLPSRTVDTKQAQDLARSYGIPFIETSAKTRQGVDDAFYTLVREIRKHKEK
Briefly: Raf1-KRAS G12V-GTP disruption HTRF assay (Biological Example 3). It counts as binding. Conditions: KRAS G12V, GTP-loaded. In a few lines: as §2

For assay [7], the target named is T6, Avi-KRAS G12R (1-169) GppNHp/RAF1 RBD-3xFLAG (52-151) (Homo sapiens, UniProt P01116, G12R).
T6 construct: Avi-KRAS G12R (1-169)
T6 sequence (P01116 1-169 isoform P01116-2 G12R): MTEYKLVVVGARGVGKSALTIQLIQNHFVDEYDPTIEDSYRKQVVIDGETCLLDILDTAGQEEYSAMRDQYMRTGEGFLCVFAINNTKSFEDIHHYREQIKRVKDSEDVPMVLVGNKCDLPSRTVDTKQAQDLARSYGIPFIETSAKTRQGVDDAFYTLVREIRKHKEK
Briefly: Raf1-KRAS G12R-GppNHP disruption HTRF assay (Biological Example 1). It counts as binding. In a few lines: as §1

Where [8] appears, read: Homo sapiens, SW-620, SW620 (KRAS G12V) cells.
[9] abbreviates: Homo sapiens, SW-620, SW620 (KRAS G12V) cells, pERK HTRF.
Where [10] appears, read: KRAS WT, GppNHp-loaded, class symbols.
Where [11] appears, read: KRAS G12D, GppNHp-loaded, class symbols.
Setting [12] is: Homo sapiens, SW-620, SW620 (KRAS G12V) cells, pERK HTRF, class symbols.
Where [13] appears, read: KRAS G12V, GppNHp-loaded, class symbols.
Where [14] appears, read: KRAS G12R, GppNHp-loaded, class symbols.

T1 sequence (P01116 1-169 isoform P01116-2): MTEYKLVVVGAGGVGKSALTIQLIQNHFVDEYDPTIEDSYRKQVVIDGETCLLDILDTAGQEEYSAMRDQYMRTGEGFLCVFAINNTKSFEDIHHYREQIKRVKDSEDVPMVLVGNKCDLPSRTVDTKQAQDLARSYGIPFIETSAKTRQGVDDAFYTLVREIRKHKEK
T3 sequence (P01116 1-169 isoform P01116-2 G12D): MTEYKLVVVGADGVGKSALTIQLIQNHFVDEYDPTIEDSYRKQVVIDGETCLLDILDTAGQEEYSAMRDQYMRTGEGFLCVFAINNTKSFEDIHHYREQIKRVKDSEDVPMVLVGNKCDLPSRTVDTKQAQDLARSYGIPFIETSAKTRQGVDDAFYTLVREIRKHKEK

Usually IC50 stands for the point on the concentration scale where inhibition reaches its midpoint. A high value points to a need for much substance. `CCN(c1nc(OC[C@@]23CCCN2C[C@H](F)C3)nc2c(F)c(-c3ccc(F)c4sc(N)c(C#N)c34)c(C(F)(F)F)cc12)[C@H]1CCN(C(=O)OC)C1` [Compound 394]: the IC50 in assay [1] (KRAS WT-GppNHp/RAF1 RBD HTRF) is below 100 nM; in assay [2], 100 to 1000 nM; in assay [3] (KRAS G12D-GppNHp/RAF1 RBD HTRF), below 100 nM; in assay [4] (setting [8]), below 100 nM; in assay [4] (setting [9]), below 100 nM; in assay [5] (KRAS G12V-GppNHp/RAF1 RBD HTRF), below 100 nM. For the same molecule, the IC50 in assay [6] was 100 to 1000 nM; in assay [7] (KRAS G12R-GppNHp/RAF1 RBD HTRF), below 100 nM.
Regarding `CN(C)C(=O)c1cc2n(n1)CCN(c1nc(OC[C@@]34CCCN3C[C@H](F)C4)nc3c(F)c(-c4ccc(F)c5sc(N)c(C#N)c45)c(C(F)(F)F)cc13)C2` [Compound 355], the IC50 is 100 to 1000 nM in assay [1] (KRAS WT-GppNHp/RAF1 RBD HTRF); 1000 to 10000 nM in assay [2]; 100 to 1000 nM in assay [3] (KRAS G12D-GppNHp/RAF1 RBD HTRF); below 100 nM in assay [4] (setting [8]); below 100 nM in assay [4] (setting [9]); 100 to 1000 nM in assay [5] (KRAS G12V-GppNHp/RAF1 RBD HTRF). The concentration for half-maximal inhibition (IC50) in assay [6] and in assay [7] (KRAS G12R-GppNHp/RAF1 RBD HTRF) was 100 to 1000 nM each time.
As to `C[C@H]1Cn2nc(C(=O)N(C)C)cc2CN1c1nc(OC[C@@]23CCCN2C[C@H](F)C3)nc2c(F)c(-c3ccc(F)c4sc(N)c(C#N)c34)c(C(F)(F)F)cc12` (atropisomer, axis not shown) [Compound 610], the IC50 in assay [1] (setting [10]) is 100 to 1000 nM; in assay [2], 1000 to 10000 nM; in assay [3] (setting [11]), below 100 nM; in assay [4] (setting [8]) it was below 100 nM; in assay [4] (setting [12]), below 100 nM; in assay [5] (setting [13]) it was 100 to 1000 nM. Also, the IC50 in assay [6] and in assay [7] (setting [14]) was 100 to 1000 nM throughout.
Take `[2H]C1([2H])O[C@@H]2C[C@H]1N(c1nc(OC[C@@]34CCCN3C[C@H](F)C4)nc3c(F)c(-c4ccc(F)c5sc(N)c(C#N)c45)c(C(F)(F)F)cc13)C2` [Compound 371]: the IC50 is 100 to 1000 nM in assay [1] (KRAS WT-GppNHp/RAF1 RBD HTRF); 100 to 1000 nM in assay [2]; 100 to 1000 nM in assay [3] (KRAS G12D-GppNHp/RAF1 RBD HTRF); below 100 nM in assay [4] (setting [8]); below 100 nM in assay [4] (setting [9]); 100 to 1000 nM in assay [5] (KRAS G12V-GppNHp/RAF1 RBD HTRF). Moreover, the IC50 was in the range of 1000 to 10000 nM in assay [6] and 100 to 1000 nM in assay [7] (KRAS G12R-GppNHp/RAF1 RBD HTRF).
With `CC(=O)N1C[C@H](N(C)c2nc(OC[C@@]34CCCN3C[C@H](F)C4)nc3c(F)c(-c4ccc(F)c5sc(N)c(C#N)c45)c(C(F)(F)F)cc23)C[C@@H]1C` [Compound 298], the IC50 in assay [1] (KRAS WT-GppNHp/RAF1 RBD HTRF) is 100 to 1000 nM; in assay [2], 100 to 1000 nM; in assay [3] (KRAS G12D-GppNHp/RAF1 RBD HTRF), 100 to 1000 nM; in assay [4] (setting [8]) it was below 100 nM; in assay [4] (setting [9]) it was below 100 nM; in assay [5] (KRAS G12V-GppNHp/RAF1 RBD HTRF) it was 100 to 1000 nM. For the same molecule, the IC50 in assay [6] and in assay [7] (KRAS G12R-GppNHp/RAF1 RBD HTRF) was 100 to 1000 nM in each case.
As to `Cc1c(C(=O)N2CCOCC2)nn2c1CN(c1nc(OCC34CCCN3CC(F)C4)nc3c(F)c(-c4ccc(F)c5sc(N)c(C#N)c45)c(C(F)(F)F)cc13)CC2` (stereo not shown) [Compound 741], the IC50 in assay [1] (setting [10]) is 100 to 1000 nM; in assay [2], 100 to 1000 nM; in assay [3] (setting [11]) it was below 100 nM; in assay [4] (setting [8]) it was below 100 nM; in assay [4] (setting [12]) it was below 100 nM; in assay [5] (setting [13]), 100 to 1000 nM. Besides, the IC50 in assay [6] and in assay [7] (setting [14]) was 100 to 1000 nM each time.
As to `CCN(c1nc(OC[C@@]23CCCN2C[C@H](F)C3)nc2c(F)c(-c3ccc(F)c4sc(N)c(C#N)c34)c(C(F)(F)F)cc12)[C@H]1CCN(C(=O)C(C)C)C1` [Compound 332], the IC50 is below 100 nM in assay [1] (KRAS WT-GppNHp/RAF1 RBD HTRF); 100 to 1000 nM in assay [2]; below 100 nM in assay [3] (KRAS G12D-GppNHp/RAF1 RBD HTRF); below 100 nM in assay [4] (setting [8]); below 100 nM in assay [4] (SW620 (KRAS G12V) cells, pERK HTRF); 100 to 1000 nM in assay [5] (KRAS G12V-GppNHp/RAF1 RBD HTRF). The IC50 in assay [6] was 100 to 1000 nM; in assay [7] (KRAS G12R-GppNHp/RAF1 RBD HTRF), below 100 nM.
Regarding `CCN(c1nc(OC[C@@]23CCCN2C[C@H](F)C3)nc2c(F)c(-c3ccc(F)c4sc(N)c(C#N)c34)c(C(F)(F)F)cc12)[C@H]1CCN(C(=O)C2CN(C(C)=O)C2)C1` (atropisomer, axis not shown) [Compound 638], the IC50 is below 100 nM in assay [1] (setting [10]); 100 to 1000 nM in assay [2]; below 100 nM in assay [3] (setting [11]); below 100 nM in assay [4] (setting [8]); below 100 nM in assay [4] (setting [12]); below 100 nM in assay [5] (setting [13]). The IC50 is at most 100 nM in assay [6] and below 100 nM in assay [7] (setting [14]).
